Data set [1] addresses 5-hydroxytryptamine receptor 6 (Homo sapiens, UniProt P50406).
Data set [2] in a line: Half life in Sprague-Dawley rat at 1 mg/kg, iv by LC-MS/MS analysis. Format: ADME, organism-based. Particulars: in vivo.
Another data set deals with Mus musculus. The data set can be described thus: Induction of weight gain in Kunming mouse at 0.6 to 5.4 mg/kg, po administered for 28 days measured every day during compound dosing. Type of data set: organism-based. Particulars: in vivo, 672 h.
In data set [3] the target is T1, Adrenergic receptor alpha-1 (Rattus norvegicus, UniProt P15823+P23944+P43140).
T1 sequence (P15823 whole entry): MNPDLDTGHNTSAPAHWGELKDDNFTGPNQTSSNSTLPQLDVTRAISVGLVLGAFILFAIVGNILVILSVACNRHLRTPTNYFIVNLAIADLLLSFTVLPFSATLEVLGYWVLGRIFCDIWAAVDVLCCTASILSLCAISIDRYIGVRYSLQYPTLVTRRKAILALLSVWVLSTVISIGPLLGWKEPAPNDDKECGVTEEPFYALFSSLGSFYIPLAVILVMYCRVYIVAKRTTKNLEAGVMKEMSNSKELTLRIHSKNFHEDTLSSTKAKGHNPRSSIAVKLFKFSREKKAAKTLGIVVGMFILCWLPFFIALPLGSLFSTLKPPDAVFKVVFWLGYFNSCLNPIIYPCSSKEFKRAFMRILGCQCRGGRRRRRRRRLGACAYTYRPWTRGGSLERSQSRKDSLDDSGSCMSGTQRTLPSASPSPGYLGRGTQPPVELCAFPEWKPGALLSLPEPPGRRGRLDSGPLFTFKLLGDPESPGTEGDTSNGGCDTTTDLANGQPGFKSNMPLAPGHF
T1 sequence (P23944 whole entry): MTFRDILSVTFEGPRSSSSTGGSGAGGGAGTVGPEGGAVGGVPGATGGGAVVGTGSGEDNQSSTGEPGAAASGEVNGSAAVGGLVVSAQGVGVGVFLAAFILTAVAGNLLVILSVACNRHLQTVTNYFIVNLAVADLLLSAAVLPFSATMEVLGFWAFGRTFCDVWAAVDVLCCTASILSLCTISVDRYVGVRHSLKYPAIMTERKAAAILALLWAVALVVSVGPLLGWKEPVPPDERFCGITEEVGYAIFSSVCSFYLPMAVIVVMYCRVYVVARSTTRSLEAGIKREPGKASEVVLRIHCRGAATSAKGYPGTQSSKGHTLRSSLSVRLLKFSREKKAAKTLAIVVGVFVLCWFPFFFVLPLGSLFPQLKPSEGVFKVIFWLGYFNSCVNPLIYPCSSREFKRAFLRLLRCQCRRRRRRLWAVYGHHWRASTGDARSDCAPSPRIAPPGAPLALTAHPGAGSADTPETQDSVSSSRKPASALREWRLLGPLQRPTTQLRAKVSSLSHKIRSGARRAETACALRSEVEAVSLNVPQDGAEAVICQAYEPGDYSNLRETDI
T1 sequence (P43140 whole entry): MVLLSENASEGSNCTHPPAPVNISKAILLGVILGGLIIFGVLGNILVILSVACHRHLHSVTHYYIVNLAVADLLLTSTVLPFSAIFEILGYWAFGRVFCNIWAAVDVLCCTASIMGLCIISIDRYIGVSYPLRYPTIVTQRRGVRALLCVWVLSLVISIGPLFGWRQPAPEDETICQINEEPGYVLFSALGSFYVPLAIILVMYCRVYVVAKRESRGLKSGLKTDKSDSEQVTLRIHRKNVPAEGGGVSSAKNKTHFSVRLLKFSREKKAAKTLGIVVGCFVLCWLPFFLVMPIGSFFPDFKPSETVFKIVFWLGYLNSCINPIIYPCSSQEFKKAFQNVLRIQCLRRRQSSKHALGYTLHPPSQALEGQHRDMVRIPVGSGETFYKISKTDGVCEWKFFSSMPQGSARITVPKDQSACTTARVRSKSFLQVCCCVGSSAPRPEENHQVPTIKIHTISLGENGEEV
Description: Displacement of [3H]-prazosin from alpha-1 adrenergic receptor in rat cerebral cortex homogenates incubated for 60 mins by liquid scintillation counting

Chain of 5-hydroxytryptamine receptor 6 (P50406 whole entry): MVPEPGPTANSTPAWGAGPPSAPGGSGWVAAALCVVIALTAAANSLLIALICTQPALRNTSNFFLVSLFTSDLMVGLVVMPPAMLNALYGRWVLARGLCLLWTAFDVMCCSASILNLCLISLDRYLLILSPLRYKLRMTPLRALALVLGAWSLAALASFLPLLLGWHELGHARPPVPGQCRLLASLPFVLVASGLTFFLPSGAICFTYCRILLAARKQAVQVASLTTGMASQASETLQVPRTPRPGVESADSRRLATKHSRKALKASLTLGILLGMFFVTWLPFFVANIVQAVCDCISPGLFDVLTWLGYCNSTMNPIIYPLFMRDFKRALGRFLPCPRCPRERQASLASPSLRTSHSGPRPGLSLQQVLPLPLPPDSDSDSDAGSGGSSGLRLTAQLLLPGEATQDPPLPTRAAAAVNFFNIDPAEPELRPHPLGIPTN

In the case of `O=C(CCCCN1CCC(c2noc3cc(F)ccc23)CC1)c1cc2c3c(c1)CCN3C(=O)CC2`, in data set [1], the midpoint of inhibition, the IC50, lay at 178 nM. Further, the half-life (in general, the time needed for the level to fall by half in the phase considered) in data set [2] is 2.15 h. In addition, in the data set with Mus musculus, the Activity result was “Non-Toxic”. Also, the Ki (in general, a measure of affinity in units of concentration, obtained from inhibition or displacement) in data set [3] came to 431 nM.
